Experimental data: EP4603105A1, “PHARMACEUTICAL COMPOSITION CONTAINING CYCLIC COMPOUND HAVING SELECTIVE KRAS INHIBITORY EFFECT AGAINST HRAS AND NRAS” (CHUGAI SEIYAKU KABUSHIKI KAISHA, priority 2022, dated 2024)

Tests used:
[1] = biological target: GDP-bound NRAS wild-type protein (Homo sapiens, UniProt P01111); assay: Binding to NRAS by surface plasmon resonance (SPR), KD and KD ratio to KRAS; details: ratio of KD for GDP-bound NRAS wild-type protein to KD for KRAS
Procedure, shortened: (§1)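 Affinity is measured by surface plasmon resonance at 30°C against captured, GDP-loaded RAS carrying a biotinylated Avi tag. Compounds are titrated by single-cycle kinetics, and KD comes from a 1:1 fit.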

HRAS wild-type protein = HRAS wild-type protein (Homo sapiens, UniProt P01112); assay: Binding to HRAS by surface plasmon resonance (SPR), KD and KD ratio to KRAS; details: ratio of KD for HRAS wild-type protein to KD for KRAS
Procedure, shortened: as §1

[2] = tested on: human lung cancer strain NCI-H441; type: cell-based
Procedure, shortened: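 Readout: […] after the ATP-based reagent. Compound: serial dilutions in dimethyl sulfoxide.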

Chain of HRAS wild-type protein (P01112 whole entry): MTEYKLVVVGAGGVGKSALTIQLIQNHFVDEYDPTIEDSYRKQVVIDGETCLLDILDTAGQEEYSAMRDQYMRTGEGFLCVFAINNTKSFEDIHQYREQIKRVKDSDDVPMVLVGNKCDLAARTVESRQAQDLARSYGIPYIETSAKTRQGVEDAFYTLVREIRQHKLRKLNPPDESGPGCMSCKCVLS
Chain of GDP-bound NRAS wild-type protein (P01111 whole entry): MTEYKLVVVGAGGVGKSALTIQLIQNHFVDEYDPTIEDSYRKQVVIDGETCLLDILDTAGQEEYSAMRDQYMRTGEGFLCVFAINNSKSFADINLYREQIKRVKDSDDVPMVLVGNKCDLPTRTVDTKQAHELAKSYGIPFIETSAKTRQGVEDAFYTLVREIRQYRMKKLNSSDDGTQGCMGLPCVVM

CCCO[C@@H]1C[C@H]2C(=O)NC3(CC(C)(C)C3)C(=O)N(C)[C@@H](C3CCCC3)C(=O)N(C)[C@H](C(=O)N3CCCC3)CC(=O)N(C)[C@H]3CCCc4ccc(cc4)C[C@@H](C(=O)N(C)CC(=O)N[C@@H](CCc4ccc(C(F)(F)F)c(OC)c4)C(=O)N2C1)N1CC/C=C\C[C@@H](C1=O)N(C)C(=O)CN(C)C(=O)[C@H]([C@@H](C)CC)NC3=O [PP3065]
NRAS /KRAS [1]: A (a compound having 10 or more and less than 20 is denoted as A) | HRAS /KRAS (HRAS wild-type protein): B (a compound having 3 or more and less than 10 is denoted as B) | IC50 [2]: 27.3 nM

CCO[C@@H]1C[C@H]2C(=O)NC3(CC(C)(C)C3)C(=O)N(C)[C@@H](C3CCCC3)C(=O)N(C)[C@H](C(=O)N(C)C)CC(=O)N(C)[C@H]3CCCCCCc4ccc(cc4)C[C@@H](C(=O)N(C)CC(=O)N[C@@H](CCc4ccc(C(F)(F)F)c(OC)c4)C(=O)N2C1)N1CC/C=C\C[C@@H](C1=O)N(C)C(=O)CN(C)C(=O)[C@H]([C@@H](C)CC)NC3=O [PP3066]
NRAS /KRAS [1]: A (a compound having 10 or more and less than 20 is denoted as A) | HRAS /KRAS (HRAS wild-type protein): B (a compound having 3 or more and less than 10 is denoted as B) | IC50 [2]: 2.2 nM

CC[C@H](C)[C@@H]1NC(=O)[C@@H]2CCCCCCc3ccc(cc3)C[C@@H](C(=O)N(C)CC(=O)N[C@@H](CCc3ccc(C(F)(F)F)c(OC)c3)C(=O)N3C[C@H](OC(C)C)C[C@H]3C(=O)NC3(CC(C)(C)C3)C(=O)N(C)[C@@H](C3CCCC3)C(=O)N(C)[C@H](C(=O)N(C)C)CC(=O)N2C)N2CC/C=C\C[C@@H](C2=O)N(C)C(=O)CN(C)C1=O [PP3067]
NRAS /KRAS [1]: A (a compound having 10 or more and less than 20 is denoted as A) | HRAS /KRAS (HRAS wild-type protein): B (a compound having 3 or more and less than 10 is denoted as B) | IC50 [2]: 1.1 nM

CC[C@H](C)[C@@H]1NC(=O)[C@@H]2CCCCCCc3ccc(cc3)C[C@@H](C(=O)N(C)CC(=O)N[C@@H](CCc3ccc(C(F)(F)F)c(OC)c3)C(=O)N3C[C@H](OC4CCC4)C[C@H]3C(=O)NC3(CC(C)(C)C3)C(=O)N(C)[C@@H](C3CCCC3)C(=O)N(C)[C@H](C(=O)N(C)C)CC(=O)N2C)N2CC/C=C\C[C@@H](C2=O)N(C)C(=O)CN(C)C1=O [PP3068]
NRAS /KRAS [1]: A (a compound having 10 or more and less than 20 is denoted as A) | HRAS /KRAS (HRAS wild-type protein): B (a compound having 3 or more and less than 10 is denoted as B) | IC50 [2]: 4.5 nM

CC[C@H](C)[C@@H]1NC(=O)[C@@H]2CCCCCCc3ccc(cc3)C[C@@H](C(=O)N(C)CC(=O)N[C@@H](CCc3ccc(C(F)(F)F)c(OC)c3)C(=O)N3CC4(CC4)C[C@H]3C(=O)NC3(CC(C)(C)C3)C(=O)N(C)[C@@H](C3CCCC3)C(=O)N(C)[C@H](C(=O)N(C)C)CC(=O)N2C)N2CC/C=C\C[C@@H](C2=O)N(C)C(=O)CN(C)C1=O [PP3069]
NRAS /KRAS [1]: A (a compound having 10 or more and less than 20 is denoted as A) | HRAS /KRAS (HRAS wild-type protein): B (a compound having 3 or more and less than 10 is denoted as B) | IC50 [2]: 2.1 nM

CCO[C@@H]1C[C@H]2C(=O)NC3(CC(C)(C)C3)C(=O)N(C)[C@@H](C3CCCC3)C(=O)N(C)[C@H](C(=O)N(C)C)CC(=O)N(C)[C@H]3CCCCCCc4ccc(cc4)C[C@@H](C(=O)N(C)CC(=O)N[C@@H](CCc4ccc(Cl)c(Cl)c4)C(=O)N2C1)N1CC/C=C\C[C@@H](C1=O)N(C)C(=O)CN(C)C(=O)[C@H]([C@@H](C)CC)NC3=O [PP3071]
NRAS /KRAS [1]: A (a compound having 10 or more and less than 20 is denoted as A) | HRAS /KRAS (HRAS wild-type protein): B (a compound having 3 or more and less than 10 is denoted as B) | IC50 [2]: 6.6 nM

CC[C@H](C)[C@@H]1NC(=O)[C@@H]2CCCCCc3ccc(cc3)C[C@@H](C(=O)N(C)CC(=O)N[C@@H](CCc3ccc(C(F)(F)F)c(OC)c3)C(=O)N3C[C@H](OC(C)C)C[C@H]3C(=O)NC3(CC(C)(C)C3)C(=O)N(C)[C@@H](C3CCCC3)C(=O)N(C)[C@H](C(=O)N(C)C)CC(=O)N2C)N2CC/C=C\C[C@@H](C2=O)N(C)C(=O)CN(C)C1=O [PP3072]
NRAS /KRAS [1]: A (a compound having 10 or more and less than 20 is denoted as A) | HRAS /KRAS (HRAS wild-type protein): B (a compound having 3 or more and less than 10 is denoted as B) | IC50 [2]: 2.6 nM

CC[C@H](C)[C@@H]1NC(=O)[C@@H]2CCCCCc3ccc(cc3)C[C@@H](C(=O)N(C)CC(=O)N[C@@H](CCc3ccc(C(F)(F)F)c(OC)c3)C(=O)N3C[C@H](OC4CCC4)C[C@H]3C(=O)NC3(CC(C)(C)C3)C(=O)N(C)[C@@H](C3CCCC3)C(=O)N(C)[C@H](C(=O)N(C)C)CC(=O)N2C)N2CC/C=C\C[C@@H](C2=O)N(C)C(=O)CN(C)C1=O [PP3073]
NRAS /KRAS [1]: A (a compound having 10 or more and less than 20 is denoted as A) | HRAS /KRAS (HRAS wild-type protein): A (a compound having 10 or more and less than 20 is denoted as A) | IC50 [2]: 1.9 nM

CC[C@H](C)[C@@H]1NC(=O)[C@@H]2CCCCCc3ccc(cc3)C[C@@H](C(=O)N(C)CC(=O)N[C@@H](CCc3ccc(C(F)(F)F)c(OC)c3)C(=O)N3CC4(CC4)C[C@H]3C(=O)NC3(CC(C)(C)C3)C(=O)N(C)[C@@H](C3CCCC3)C(=O)N(C)[C@H](C(=O)N(C)C)CC(=O)N2C)N2CC/C=C\C[C@@H](C2=O)N(C)C(=O)CN(C)C1=O [PP3074]
NRAS /KRAS [1]: A (a compound having 10 or more and less than 20 is denoted as A) | HRAS /KRAS (HRAS wild-type protein): A (a compound having 10 or more and less than 20 is denoted as A) | IC50 [2]: 2.4 nM

CCO[C@@H]1C[C@H]2C(=O)NC3(CC(C)(C)C3)C(=O)N(C)[C@@H](C3CCCC3)C(=O)N(C)[C@H](C(=O)N(C)C)CC(=O)N(C)[C@H]3CCCCCc4ccc(cc4)C[C@@H](C(=O)N(C)CC(=O)N[C@@H](CCc4ccc(C(F)(F)F)c(OC)c4)C(=O)N2C1)N1CC/C=C\C[C@@H](C1=O)N(C)C(=O)CN(C1CC1)C(=O)[C@H]([C@@H](C)CC)NC3=O [PP3075]
NRAS /KRAS [1]: A (a compound having 10 or more and less than 20 is denoted as A) | HRAS /KRAS (HRAS wild-type protein): A (a compound having 10 or more and less than 20 is denoted as A) | IC50 [2]: 1.1 nM

CCO[C@@H]1C[C@H]2C(=O)NC3(CC(C)(C)C3)C(=O)N(C)[C@@H](C3CCCC3)C(=O)N(C)[C@H](C(=O)N(C)C)CC(=O)N(C)[C@H]3CCCCCc4ccc(cc4)C[C@@H](C(=O)N(C)CC(=O)N[C@@H](CCc4ccc(Cl)c(Cl)c4)C(=O)N2C1)N1CC/C=C\C[C@@H](C1=O)N(C)C(=O)CN(C)C(=O)[C@H]([C@@H](C)CC)NC3=O [PP3076]
NRAS /KRAS [1]: AA (a compound having 20 or more is denoted as AA) | HRAS /KRAS (HRAS wild-type protein): A (a compound having 10 or more and less than 20 is denoted as A) | IC50 [2]: 4.1 nM

CCCO[C@@H]1C[C@H]2C(=O)NC3(CC(C)(C)C3)C(=O)N(C)[C@@H](C3CCCC3)C(=O)N(C)[C@H](C(=O)N(C)C)CC(=O)N(C)[C@H]3CCCCc4ccc(cc4)C[C@@H](C(=O)N(C)CC(=O)N[C@@H](CCc4ccc(C(F)(F)F)c(OC)c4)C(=O)N2C1)N1CC/C=C\C[C@@H](C1=O)N(C)C(=O)CN(C)C(=O)[C@H]([C@@H](C)CC)NC3=O [PP3077]
NRAS /KRAS [1]: A (a compound having 10 or more and less than 20 is denoted as A) | HRAS /KRAS (HRAS wild-type protein): B (a compound having 3 or more and less than 10 is denoted as B) | IC50 [2]: 0.8 nM

CC[C@H](C)[C@@H]1NC(=O)[C@@H]2CCCCc3ccc(cc3)C[C@@H](C(=O)N(C)CC(=O)N[C@@H](CCc3ccc(C(F)(F)F)c(OC)c3)C(=O)N3C[C@H](OC(C)C)C[C@H]3C(=O)NC3(CC(C)(C)C3)C(=O)N(C)[C@@H](C3CCCC3)C(=O)N(C)[C@H](C(=O)N(C)CC)CC(=O)N2C)N2CC/C=C\C[C@@H](C2=O)N(C)C(=O)CN(C)C1=O [PP3078]
NRAS /KRAS [1]: A (a compound having 10 or more and less than 20 is denoted as A) | HRAS /KRAS (HRAS wild-type protein): B (a compound having 3 or more and less than 10 is denoted as B) | IC50 [2]: 2.3 nM

CC[C@H](C)[C@@H]1NC(=O)[C@@H]2CCCCc3ccc(cc3)C[C@@H](C(=O)N(C)CC(=O)N[C@@H](CCc3ccc(C(F)(F)F)c(OC)c3)C(=O)N3C[C@H](OC4CCCC4)C[C@H]3C(=O)NC3(CC(C)(C)C3)C(=O)N(C)[C@@H](C3CCCC3)C(=O)N(C)[C@H](C(=O)N(C)C)CC(=O)N2C)N2CC/C=C\C[C@@H](C2=O)N(C)C(=O)CN(C)C1=O [PP3080]
NRAS /KRAS [1]: A (a compound having 10 or more and less than 20 is denoted as A) | HRAS /KRAS (HRAS wild-type protein): B (a compound having 3 or more and less than 10 is denoted as B) | IC50 [2]: 4.3 nM

CC[C@H](C)[C@@H]1NC(=O)[C@@H]2CCCCc3ccc(cc3)C[C@@H](C(=O)N(C)CC(=O)N[C@@H](CCc3ccc(C(F)(F)F)c(OC)c3)C(=O)N3CC4(CC4)C[C@H]3C(=O)NC3(CC(C)(C)C3)C(=O)N(C)[C@@H](C3CCCC3)C(=O)N(C)[C@H](C(=O)N(C)CC)CC(=O)N2C)N2CC/C=C\C[C@@H](C2=O)N(C)C(=O)CN(C)C1=O [PP3081]
NRAS /KRAS [1]: A (a compound having 10 or more and less than 20 is denoted as A) | HRAS /KRAS (HRAS wild-type protein): B (a compound having 3 or more and less than 10 is denoted as B) | IC50 [2]: 1.9 nM
